From US5138101A, “Recovery of high-boiling aldehydes from rhodium-catalyzed hydroformylation processes” (Eastman Kodak Company, priority 1991, dated 1992)

Assay: Extraction and back-extraction with p-diisopropylbenzene or 1,7-octadiene: rhodium concentration in both phases, composition of extraction solution
Assay type: physicochemical
Description: Examples […] illustrate yet another embodiment of the process of the present invention wherein extraction solution containing dissolved rhodium is back-extracted with either hydroformylation solvent or olefinic feedstock to reduce the concentration of rhodium in the extraction solution.
The general procedure described in Examples 31-48 was used to extract 60.5 mL of hydroformylation product solution obtained by the hydroformylation of 1,7 octadiene in the presence of a catalyst system comprising rhodium and BISBI phosphine (Reference Example 9). […] The extraction flask was charged with the hydroformylation product solution, 37 mL methanol, 12 mL water and […] [Na] provided as sodium oleate.
For Example 88, the extraction mixture was stirred at room temperature for 30 minutes and then drained into a calibrated, addition funnel and allowed to stand for about five minutes to permit phase separation. The volume of the hydroformylation product solution (organic) phase was 45 mL and the volume of the extraction solution phase was 65 ml. Samples of each phase were taken for rhodium and product composition analyses.
For Example 89, the extraction solution phase separated in Example 88 was added to a clean 250 mL flask along with 30 mL of p-diisopropylbenzene and the mixture was stirred at 50° C. for 30 minutes, was allowed to stand at 50° C. for about 5 minutes to permit phase separation and then each phase was separated and analyzed for composition and rhodium concentration.
For Example 90, the extraction solution separated in Example 89 was added to a clean 250 mL flask along with another 30 mL of p-diisopropylbenzene hydroformylation solvent. The mixture was agitated at 50° C. for thirty minutes, allowed to stand at 50° C. for 5 minutes to permit phase separation and each phase was analyzed for composition and rhodium concentration.
This scheme would be useful in a counter-current extraction method for recycling recovered hydroformylation product solution as well as in using the olefinic feed to the reactor as a back extraction solvent for recovering soluble rhodium from the methanol/water extract.
Example 91 was carried out using the procedure described in Examples 88. The flask was charged with 62 mL of a hydroformylation product solution (Reference Example 10) having a rhodium concentration 166 mg/L and containing 3.01 g of C9-enal, 12.69 g of C10-dial and 37.84 grams of p-diisopropylbenzene. Methanol (37 ml), water (16 ml) and 78 mg Na (as sodium 2-ethylhexanoate) were added to the flask. This mixture was stirred at 50° C. for 30 minutes and then allowed to stand for 5 minutes at 50° C. to permit phase separation. The hydroformylation product solution (organic) phase and the extraction solution phase were both sampled and analyzed for rhodium concentration. The 2 phases were drained into a clean, graduated addition funnel and the volumes of the two phases were measured. The volume of the organic layer was 43 mL and the extraction solution layer was 62 mL.
For Example 92, the extraction solution phase produced in Example 91 was added to a clean, 250 mL flask along with 30 mL of p-diisopropylbenzene and the mixture was stirred at 50° C. for 30 minutes and then allowed to separate into two phases. The two phases were analyzed for rhodium concentration and composition. The mixture was drained into a clean addition funnel to separate the two phases. For Example 93, the extraction solution phase of Example 92 and 30 mL of 1,7-octadiene were added to a clean, 250 mL flask. This mixture was stirred at 50° C. for 30 minutes and then allowed to separate into two phases which were analyzed for rhodium concentration.
The amounts (g) of C9-enal, C10-dial in the sample of hydroformylation product solution initially extracted and in the methanol/water extraction solutions resulting from Examples 91, 92 and 93 are given in Table XIII. The ratio given in Table XIII is the weight ratio of C10-dial:C9-enal. […]

[1] = Example 88, initial extraction, sodium oleate
[2] = Example 89, first back-extraction, p-diisopropylbenzene, 50° C.
[3] = Example 90, second back-extraction, p-diisopropylbenzene, 50° C.
[4] = Example 91, initial extraction, sodium 2-ethylhexanoate, 50° C.
[5] = Example 92, back-extraction, p-diisopropylbenzene, 50° C.
[6] = Example 94, initial extraction, no salt, 25° C.
[7] = Example 95, back-extraction, p-diisopropylbenzene, 50° C.

Structure (SMILES): [Rh] [Rh, rhodium]
- Rhodium Concentration, Extraction Solution Phase [1]: 5.2 mg Rh per liter
- Rhodium Concentration, Organic Phase [1]: 235 mg Rh per liter
- Rhodium Concentration, Extraction Solution Phase [2]: 1.6 mg Rh per liter
- Rhodium Concentration, Organic Phase [2]: 7.2 mg Rh per liter
- Rhodium Concentration, Extraction Solution Phase [3]: 1.0 mg Rh per liter
- Rhodium Concentration, Organic Phase [3]: 1.2 mg Rh per liter
- Rhodium Concentration, Extraction Solution Phase [4]: 6.2 mg Rh per liter
- Rhodium Concentration, Organic Phase [4]: 216 mg Rh per liter
- Rhodium Concentration, Extraction Solution Phase [5]: 1.0 mg Rh per liter
- Rhodium Concentration, Organic Phase [5]: 7.0 mg Rh per liter
- Rhodium Concentration, Organic Phase (Example 93, back-extraction, 1,7-octadiene, 50° C.): < 1 mg Rh per liter
- Rhodium Concentration, Extraction Solution Phase (Example 93, back-extraction, 1,7-octadiene, 50° C., listed as Rhodium): < 1 mg Rh per liter
- Rhodium Concentration, Extraction Solution Phase (Example 93, back-extraction, 1,7-octadiene, 50° C., listed as rhodium): below detection limits
- Rhodium Concentration, Extraction Solution Phase [6]: 37 mg Rh per liter
- Rhodium Concentration, Organic Phase [6]: 195 mg Rh per liter
- Rhodium Concentration, Extraction Solution Phase [7]: 33 mg Rh per liter
- Rhodium Concentration, Organic Phase [7]: 24 mg Rh per liter
